What was measured:
[1] = molecular target: T1, Flt-1 (Homo sapiens, UniProt P17948); assay: GST-fused kinase domain assay, Flt-1; assay type: biochemical; settings: Flt-1, text
T1 construct: GST-fused kinase domains of Kdr, Flt-1, Flk, Tek, c-Met, and c-Kit were expressed in baculovirus; GST; made in house
T1 sequence (P17948 827-1158 limits assumed): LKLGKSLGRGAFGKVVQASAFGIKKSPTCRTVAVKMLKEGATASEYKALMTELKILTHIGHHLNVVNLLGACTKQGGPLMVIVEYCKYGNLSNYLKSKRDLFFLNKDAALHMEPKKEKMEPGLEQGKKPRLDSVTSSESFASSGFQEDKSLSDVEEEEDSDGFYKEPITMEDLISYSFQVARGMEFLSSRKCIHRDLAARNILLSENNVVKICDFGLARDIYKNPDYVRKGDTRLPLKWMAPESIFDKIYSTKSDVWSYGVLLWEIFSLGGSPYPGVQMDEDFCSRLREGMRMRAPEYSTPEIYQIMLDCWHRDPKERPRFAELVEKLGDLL
Method: (§1) GST-fused kinase domains of Kdr, Flt-1, Flk, Tek, c-Met, and c-Kit were expressed in baculovirus and purified over glutathione-Sepharose. Kinase inhibition was measured by detecting the decrease in phosphorylation of poly(Glu,Tyr 4:1) essentially as previously described for EGF-R. Each kinase was incubated under optimized buffer conditions in 20 mM Tris-HCl, pH 7.5, 1–3 mM MnCl2, 3–10 mM MgCl2, 10 μM Na3VO4, 1 mM DTT, 0.2 μCi/[γ-^33P]ATP, 1–8 μM ATP, 3–8 μg/ml poly(Glu,Tyr 4:1), 1% DMSO in a total volume of 30 μl in the presence or absence of PKI166 for 10 min at ambient temperature. Reactions were terminated by adding 10 μl of 250 mM EDTA, and the reaction mixture was transferred onto an Immobilon-PVDG membrane (Millipore, Bedford, Mass.). Following a washing (0.5% H3PO4), a soaking in EtOH, and drying, filters were counted in a liquid scintillation counter. IC50 values for PKI166 were calculated by linear regression analysis of the percentage inhibition. Inhibition of Cdc2/cyclin B protein kinase (Arion et al. 1988; Partanen et al. 1991) and PKC (McGlynn et al. 1992b) was assayed as previously described.

[2] = molecular target: T2, Flk (Mus musculus, UniProt P35918); assay: GST-fused kinase domain assay, Flk; assay type: biochemical
T2 construct: GST-fused kinase domains of Kdr, Flt-1, Flk, Tek, c-Met, and c-Kit were expressed in baculovirus; GST; made in house
Method: as §1

[3] = molecular target: Cdc2/cyclin B; assay: Cdc2/cyclin B protein kinase inhibition assay; assay type: biochemical
Method: GST-fused kinase domains of Kdr, Flt-1, Flk, Tek, c-Met, and c-Kit were expressed in baculovirus and purified over glutathione-Sepharose. Kinase inhibition was measured by detecting the decrease in phosphorylation of poly(Glu,[…]:1) essentially as previously described for EGF-R. […] Reactions were terminated by adding 10 μl of 250 mM EDTA, and the reaction mixture was transferred onto an Immobilon-PVDG membrane (Millipore, Bedford, Mass.). Following a washing (0.5% H3PO4), a soaking in EtOH, and drying, filters were counted in a liquid scintillation counter. […] Inhibition of Cdc2/cyclin B protein kinase (Arion et al. 1988; […] et al. 1991) and […] et al. 1992b) was assayed as previously described.

[4] = molecular target: T3, EGF-R (Homo sapiens, UniProt P00533); assay: Western blot analysis of EGF-R autophosphorylation in L3.6pl cells; assay type: cell-based; settings: 60 min pretreatment, 0.01–0.5 μM, then EGF
T3 construct: endogenous in cells; host or cells: L3.6pl human pancreatic cancer cells
Method: Western Blot Analysis of EGF-R Autophosphorylation following Treatment with PKI166. […] without 40 ng/ml rhEGF for 10 min, washed, and scraped into PBS containing 5 mM EDTA and 1 mM Na Orthovanadate, and centrifuged, and the pellet resuspended in lysis buffer (20 mM Tris-HCl, pH 8.0, 137 mM NaCl, 10% glycerol, 2 mM EDTA, 1 mM phenylmethylsulfonyl fluoride, 20 μM leupeptin, and 0.15 U/ml aprotinin) sonicated, and centrifuged to recover […] protein. Immunoprecipitation was performed using Mab anti-EGF-R (clone EGF-RI) as described previously (Perrotte et al. 1999; Parker et al. 1998). Immunoprecipitates were analyzed on 7.5% NaDodSO4-PAGE and transferred onto 0.45-μm nitrocellulose membranes. The filters were blocked with 3% bovine serum albumin in TDS (20 mM Tris-HCl, pH 7.5, 150 mM NaCl), probed with either polyclonal sheep anti-human EGF-R (1:1000) or monoclonal anti-phosphotyrosine (Mab 4G10) (1:2000) in TTBS (0.1% Tween 20 in TBS), and incubated with horseradish peroxidase-conjugated donkey anti-sheep IgG (1:2000) (Sigma Immunochemicals, St. Louis, Mo.) or sheep anti-mouse IgG (1:2000), respectively, in TTBS. Protein bands were visualized by ECL detection system. For an additional experiment, serum-starved L3.6pl cells were treated with gemcitabine (10 nM) with or without PKI166 (0.05, 0.5 μM) for 1 h, and then incubated with or without rhEGF (40 ng/ml) for 10 min. […]

T3 sequence (P00533 25-1210): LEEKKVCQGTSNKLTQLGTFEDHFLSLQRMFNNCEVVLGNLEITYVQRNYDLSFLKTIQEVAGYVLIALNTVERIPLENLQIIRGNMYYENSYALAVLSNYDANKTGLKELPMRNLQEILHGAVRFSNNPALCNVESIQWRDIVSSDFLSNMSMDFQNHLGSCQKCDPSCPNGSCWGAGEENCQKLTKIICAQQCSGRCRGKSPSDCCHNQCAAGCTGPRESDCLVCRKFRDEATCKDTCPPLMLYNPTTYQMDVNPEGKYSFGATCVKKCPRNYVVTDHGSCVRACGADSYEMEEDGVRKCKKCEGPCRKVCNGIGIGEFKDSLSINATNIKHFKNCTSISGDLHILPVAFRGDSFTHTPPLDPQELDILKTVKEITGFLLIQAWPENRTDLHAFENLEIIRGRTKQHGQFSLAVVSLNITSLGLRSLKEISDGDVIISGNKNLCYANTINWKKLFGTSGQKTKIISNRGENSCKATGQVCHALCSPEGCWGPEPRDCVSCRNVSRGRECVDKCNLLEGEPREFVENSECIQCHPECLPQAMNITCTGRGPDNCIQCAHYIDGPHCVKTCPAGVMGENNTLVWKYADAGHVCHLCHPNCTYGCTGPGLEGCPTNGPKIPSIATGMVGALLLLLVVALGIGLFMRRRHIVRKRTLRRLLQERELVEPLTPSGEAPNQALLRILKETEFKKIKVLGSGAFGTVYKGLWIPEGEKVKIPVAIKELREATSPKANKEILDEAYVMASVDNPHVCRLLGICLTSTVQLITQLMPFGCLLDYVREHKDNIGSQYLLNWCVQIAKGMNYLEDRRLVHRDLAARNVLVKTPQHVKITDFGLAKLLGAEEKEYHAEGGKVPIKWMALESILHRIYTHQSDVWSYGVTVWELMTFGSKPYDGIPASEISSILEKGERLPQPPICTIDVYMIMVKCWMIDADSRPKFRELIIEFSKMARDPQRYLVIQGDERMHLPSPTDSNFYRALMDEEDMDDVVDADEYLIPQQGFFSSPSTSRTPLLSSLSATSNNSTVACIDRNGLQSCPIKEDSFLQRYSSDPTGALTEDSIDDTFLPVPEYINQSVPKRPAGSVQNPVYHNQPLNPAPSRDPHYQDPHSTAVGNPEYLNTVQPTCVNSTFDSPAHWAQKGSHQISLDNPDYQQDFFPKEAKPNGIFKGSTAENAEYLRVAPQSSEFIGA
T2 sequence (P35918 832-1160 limits assumed): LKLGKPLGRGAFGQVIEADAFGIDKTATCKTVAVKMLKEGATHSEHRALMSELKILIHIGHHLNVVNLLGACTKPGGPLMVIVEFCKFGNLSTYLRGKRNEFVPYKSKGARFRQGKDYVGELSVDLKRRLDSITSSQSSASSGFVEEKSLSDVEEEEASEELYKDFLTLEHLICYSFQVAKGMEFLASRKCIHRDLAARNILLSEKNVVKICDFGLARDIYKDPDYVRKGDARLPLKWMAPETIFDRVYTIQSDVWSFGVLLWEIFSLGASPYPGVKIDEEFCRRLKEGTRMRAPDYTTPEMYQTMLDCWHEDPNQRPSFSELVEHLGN

Compound: C[C@@H](Nc1ncnc2[nH]c(-c3ccc(O)cc3)cc12)c1ccccc1 [PKI166, 4-(R)-phenethylamino-6-(hydroxyl) phenyl-7H-pyrrolo[2.3-d]-pyrimidine]
- IC50 [1]: 962 nM
- IC50 [2]: > 1000 nM
- IC50 [3]: 78000 nM
- Inhibition of EGF-stimulated EGF-R autophosphorylation [4]: inhibited the autophosphorylation in a dose-dependent manner
